pIC50: −log10 of the molar value.
Experiments:
[1] = biological target: T1, tau protein (Homo sapiens, UniProt P10636); experiment: Tau-BiFC cell model, inhibition of Forskolin-induced tau protein aggregation; type: cell-based; settings: Forskolin 30 μM, 48 hours; for Tau BiFC in cells Response (% @10 μM): 10 μM compound, Forskolin-only group = 100% tau protein-aggregated state; for pIC50: tau-BiFC cells
T1 construct: BiFC fluorescent-protein fragments (type and halves not specified); expressed in transfected cells
Description: In order to select novel tau protein aggregation-inhibiting substances, tau-BiFC cell model, in which formation of tau oligomers in living cells is easily observed, was used. Tau-BiFC cells were aliquoted into a 384-well plate. On the next day, the cells were treated with each of the compounds prepared according to Examples 1 to 57 at concentrations of 1 μM, 3 μM, and 10 μM, together with Forskolin (at a treatment concentration of 30 μM), which is a compound inducing tau protein aggregation by activating tau phosphorylase PKA. After 48 hours, nuclei in the cells were stained using Hoechst (at a treatment concentration of 2 μg/mL), and BiFC fluorescence intensity was automatically measured using Operetta (PerkinElmer) to count stained nuclei in each well out of the entire well plate. The group treated only with Forskolin, which induces tau protein aggregation, was set to a reference point of a 100% tau protein-aggregated state, and the effects of the compounds were confirmed using the equation “BiFC fluorescence intensity due to compound synthesized according to embodiment of present invention/(fluorescence intensity of control group treated only with Forskolin inducing tau protein aggregation−fluorescence intensity of untreated control group)×100”. Furthermore, the degree of cytotoxicity induced by the newly synthesized compound was also measured based on the 100% cell viability of the group treated only with Forskolin as a reference, and the cytotoxicity value of each compound was calculated using the equation “(number of stained nuclei in group treated with compound/number of stained nuclei in group treated with Forskolin)×100”. Based on the treatment results, substances inhibiting intracellular tau protein aggregation were selected from a series of candidate groups showing a tau protein aggregation inhibition rate of 70% or more and cell viability of 100% at a compound treatment concentration of 10 μM or more.
In order to evaluate dose-dependent tau protein aggregation inhibition effects of the compounds selected according to Experimental Example 1 on tau protein aggregation, tau-BiFC cells were treated with the selected compounds at concentrations of 0.03 μM, […], 0.3 μM, 1 μM, 3 μM, 10 μM, and 30 μM, respectively, together with Forskolin (at a treatment concentration of 30 μM), which is a tau protein aggregation-inducing substance. After 48 hours, tau protein aggregation reaction and degrees of cytotoxicity were analyzed by observing images of the cells. IC50 and toxicity of the compounds were analyzed by way of nonlinear regression analysis of prism software (Graph Pad).

[2] = test system: Tau-BiFC cells; experiment: Cell viability (stained nuclei count) in Tau-BiFC cells; type: cell-based; settings: 10 μM compound, 48 hours; Forskolin-only group = 100% cell viability
Description: In order to select novel tau protein aggregation-inhibiting substances, tau-BiFC cell model, in which formation of tau oligomers in living cells is easily observed, was used. Tau-BiFC cells were aliquoted into a 384-well plate. On the next day, the cells were treated with each of the compounds prepared according to Examples 1 to 57 at concentrations of 1 μM, 3 μM, and 10 μM, together with Forskolin (at a treatment concentration of 30 μM), which is a compound inducing tau protein aggregation by activating tau phosphorylase PKA. After 48 hours, nuclei in the cells were stained using Hoechst (at a treatment concentration of 2 μg/mL), and BiFC fluorescence intensity was automatically measured using Operetta (PerkinElmer) to count stained nuclei in each well out of the entire well plate. The group treated only with Forskolin, which induces tau protein aggregation, was set to a reference point of a 100% tau protein-aggregated state, and the effects of the compounds were confirmed using the equation “BiFC fluorescence intensity due to compound synthesized according to embodiment of present invention/(fluorescence intensity of control group treated only with Forskolin inducing tau protein aggregation−fluorescence intensity of untreated control group)×100”. Furthermore, the degree of cytotoxicity induced by the newly synthesized compound was also measured based on the 100% cell viability of the group treated only with Forskolin as a reference, and the cytotoxicity value of each compound was calculated using the equation “(number of stained nuclei in group treated with compound/number of stained nuclei in group treated with Forskolin)×100”. Based on the treatment results, substances inhibiting intracellular tau protein aggregation were selected from a series of candidate groups showing a tau protein aggregation inhibition rate of 70% or more and cell viability of 100% at a compound treatment concentration of 10 μM or more. […]

T1 sequence (P10636 1-441 isoform P10636-8): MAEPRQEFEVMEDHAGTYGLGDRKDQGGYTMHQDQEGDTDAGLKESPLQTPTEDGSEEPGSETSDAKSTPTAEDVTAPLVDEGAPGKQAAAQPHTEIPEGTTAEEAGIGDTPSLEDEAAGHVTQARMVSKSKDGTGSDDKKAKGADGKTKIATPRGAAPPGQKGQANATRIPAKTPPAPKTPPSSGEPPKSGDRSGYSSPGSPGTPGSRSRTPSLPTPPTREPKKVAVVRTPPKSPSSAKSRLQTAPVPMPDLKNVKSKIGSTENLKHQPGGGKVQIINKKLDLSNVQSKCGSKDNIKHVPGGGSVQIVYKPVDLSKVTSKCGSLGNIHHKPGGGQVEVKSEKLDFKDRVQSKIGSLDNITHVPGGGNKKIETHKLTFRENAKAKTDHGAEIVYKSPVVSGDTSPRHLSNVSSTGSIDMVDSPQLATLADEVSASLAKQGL

Row | Structure (SMILES) | Tau BiFC in cells Response (% @10 μM) [1] | pIC50 [1] | Cell viability (% @10 μM) [2]
1 | Cn1c(=O)n(C2CC2)c2ncc(NN=C(C#N)C#N)cc21 [Compound 51, (3-cyclopropyl-1-methyl-2-oxo-2,3-dihydro-1H-imidazo[4,5-b]pyridin-6-yl)carbonohydrazonoyl dicyanide] | −11% | 6.18 | 137%
2 | N#CC(C#N)=NNc1ccc2cc[nH]c(=O)c2c1 [Compound 1, (1-oxo-1,2-dihydroisoquinolin-7-yl)carbonohydrazonoyl dicyanide] | 0% | 6.89 | 152.9%
3 | Cn1c(=O)oc2ccc(NN=C(C#N)C#N)cc21 [Compound 28, (3-methyl-2-oxo-2,3-dihydrobenzo[d]oxazol-5-yl)carbonohydrazonoyl dicyanide] | 13% |  | 134%
4 | CCn1c(=O)n(C(F)F)c2cc(NN=C(C#N)C#N)ccc21 [Compound 39, (3-(difluoromethyl)-1-ethyl-2-oxo-2,3-dihydro-1H-benzo[d]imidazol-5-yl)carbonohydrazonoyl dicyanide] | −45% | 8.00 | 106%
5 | COc1cc2c(cc1NN=C(C#N)C#N)n(C)c(=O)n2C [Compound 32, (6-methoxy-1,3-dimethyl-2-oxo-2,3-dihydro-1H-benzo[d]imidazol-5-yl)carbonohydrazonoyl dicyanide] | 38% |  | 132%
6 | N#CC(C#N)=NNc1ccc2oc(=O)n(C(F)F)c2c1 [Compound 30, (3-(difluoromethyl)-2-oxo-2,3-dihydrobenzo[d]oxazol-5-yl)carbonohydrazonoyl dicyanide] | 36% |  | 127%
7 | Cn1c(=O)n(C2CC2)c2ccc(NN=C(C#N)C#N)cc21 [Compound 40, (1-cyclopropyl-3-methyl-2-oxo-2,3-dihydro-1H-benzo[d]imidazol-5-yl)carbonohydrazonoyl dicyanide] | −38% | 7.52 | 122%
8 | Cn1c(=O)n(C)c2cc(NN=C(C#N)C#N)c(F)cc21 [Compound 9, (6-fluoro-1,3-dimethyl-2-oxo-2,3-dihydro-1H-benzo[d]imidazol-5-yl)carbonohydrazonoyl dicyanide] | 0% | 6.77 | 155.3%
9 | CCn1c(=O)n(C2CC2)c2ccc(NN=C(C#N)C#N)cc21 [Compound 41, (1-cyclopropyl-3-ethyl-2-oxo-2,3-dihydro-1H-benzo[d]imidazol-5-yl)carbonohydrazonoyl dicyanide] | −54% | 7.70 | 112%
10 | CC(C)n1c(=O)n(C)c2ncc(NN=C(C#N)C#N)cc21 [Compound 45, (1-isopropyl-3-methyl-2-oxo-2,3-dihydro-1H-imidazo[4,5-b]pyridin-6-yl)carbonohydrazonoyl dicyanide] | −24% | 6.70 | 113%
11 | N#CC(C#N)=NNc1ccc2[nH]c(=O)ccc2c1 [Compound 8, (2-oxo-1,2-dihydroquinolin-6-yl)carbonohydrazonoyl dicyanide] | 0% | 6.37 | 152.5%
12 | Cc1cc2c(cc1NN=C(C#N)C#N)n(C)c(=O)n2C [Compound 31, (1,3,6-trimethyl-2-oxo-2,3-dihydro-1H-benzo[d]imidazol-5-yl)carbonohydrazonoyl dicyanide] | 47% |  | 119%
13 | CCn1c(=O)n(C)c2ncc(NN=C(C#N)C#N)cc21 [Compound 44, (1-ethyl-3-methyl-2-oxo-2,3-dihydro-1H-imidazo[4,5-b]pyridin-6-yl)carbonohydrazonoyl dicyanide] | 10% |  | 138%
14 | Cc1cc(=O)[nH]c2ccc(NN=C(C#N)C#N)cc12 [Compound 26, (4-methyl-2-oxo-1,2-dihydroquinolin-6-yl)carbonohydrazonoyl dicyanide] | −5% | 6.11 | 120%
15 | CCn1c(=O)n(C(C)C)c2cc(NN=C(C#N)C#N)cnc21 [Compound 49, (3-ethyl-1-isopropyl-2-oxo-2,3-dihydro-1H-imidazo[4,5-b]pyridin-6-yl)carbonohydrazonoyl dicyanide] | −34% | 7.30 | 139%
16 | Cn1c(=O)n(C(F)F)c2cc(NN=C(C#N)C#N)cnc21 [Compound 46, (1-(difluoromethyl)-3-methyl-2-oxo-2,3-dihydro-1H-imidazo[4,5-b]pyridin-6-yl)carbonohydrazonoyl dicyanide] | 23% |  | 131%
17 | CCn1c(=O)n(C(F)F)c2cc(NN=C(C#N)C#N)cnc21 [Compound 50, (1-(difluoromethyl)-3-ethyl-2-oxo-2,3-dihydro-1H-imidazo[4,5-b]pyridin-6-yl)carbonohydrazonoyl dicyanide] | 2% |  | 119%
18 | Cn1c(=O)ccc2cc(NN=C(C#N)C#N)ccc21 [Compound 25, (1-methyl-2-oxo-1,2-dihydroquinolin-6-yl)carbonohydrazonoyl dicyanide] | −16% | 7.70 | 118%
19 | Cn1c(=O)n(-c2ccccc2)c2cc(NN=C(C#N)C#N)cnc21 [Compound 47, (3-methyl-2-oxo-1-phenyl-2,3-dihydro-1H-imidazo[4,5-b]pyridin-6-yl)carbonohydrazonoyl dicyanide] | 13% |  | 117%
20 | CC(C)n1c(=O)n(C)c2cc(NN=C(C#N)C#N)cnc21 [Compound 54, (3-isopropyl-1-methyl-2-oxo-2,3-dihydro-1H-imidazo[4,5-b]pyridin-6-yl)carbonohydrazonoyl dicyanide] | −38% | 6.52 | 118%
21 | CCn1c(=O)n(C2CC2)c2ncc(NN=C(C#N)C#N)cc21 [Compound 52, (3-cyclopropyl-1-ethyl-2-oxo-2,3-dihydro-1H-imidazo[4,5-b]pyridin-6-yl)carbonohydrazonoyl dicyanide] | −30% | 6.70 | 133%
